In patent publication US4863914A, “Penem derivatives” (Farmitalia Carlo Erba, priority 1985, dated 1989):
Converted amounts (≈) assume the structure as drawn. Read-outs that look alike come from different tables or passages of the source.

Experiments:
Escherichia coli 026:B6 = test: In-vitro antibacterial activity, agar dilution technique; format: cell-based
Excerpt: (§1) In-Vitro Antibacterial Activity (γ/ml)
(§2) Against Gram-positive And Gram-negative bacteria
(§3) As Determined By The Agar Dilution Technique

S. Aureus 209 P = test: as above; format: cell-based; conditions: Staphylococcus aureus
Excerpt: as §1, §2, §3

[1] = tested on: Proteus morganii ATCC 25830; test: as above; format: cell-based; conditions: Morganella morganii, ATCC25830
Excerpt: as §1, §2, §3

[2] = tested on: Pseudomonas aeruginosa 2598; test: as above; format: cell-based
Excerpt: as §1, §2, §3

S. Epidermidis = test: as above; format: cell-based; conditions: Staphylococcus epidermidis
Excerpt: as §1, §2, §3

[3] = tested on: Staphylococcus aureus Smith; test: as above; format: cell-based
Excerpt: as §1, §2, §3

[4] = tested on: E. coli 026:B6 cef R (IV); test: as above; format: cell-based; conditions: Escherichia coli
Excerpt: as §1, §2, §3

K. aerogenes 1082 E = test: as above; format: cell-based; conditions: Klebsiella aerogenes
Excerpt: as §1, §2, §3

[5] = tested on: Streptococcus faecalis (4 Strains); test: as above; format: cell-based; conditions: Enterococcus faecalis
Excerpt: as §1, §2, §3

P. rettgeri ATCC 9250 = test: as above; format: cell-based; conditions: Providencia rettgeri, ATCC9250
Excerpt: as §1, §2, §3

[6] = tested on: Klebsiella aerogenes 1522 E; test: as above; format: cell-based
Excerpt: as §1, §2, §3

S. pyogenes ATCC 12384 = test: as above; format: cell-based; conditions: Streptococcus pyogenes
Excerpt: as §1, §2, §3

[7] = Plasma half-life after a single intravenous dose in the mouse; format: in vivo; conditions: 10 mg/kg, single intravenous dose 10 mg/kg, two compartments open model
Experimental: | ^(1) Determined after a single intravenous dose (10 mg/kg) in the | mouse; the plasma concentration vs. time data were best described | according to a two compartments open model with the tabulated

[8] = tested on: Klebsiella pneumoniae FI 5724; test: Experimental infections in mice (intraperitoneal); format: in vivo; conditions: FI5724, 6 h, K. pneumoniae FI 5724, intraperitoneal infection in mice, 3 × LD50 challenge, treatments at 30, 90, 360 minutes, read-out: ED50 (cumulative dose)
Experimental: (§4) ^(2) Intraperitoneal infection in mice with a 3 × LD50
(§5) challenge; treatments at 30 minutes after infection for S. aureus and 30,
(§6) 90, 360 minutes for E. coli and K. pneumoniae.

Escherichia coli G = test: Experimental infections in mice (intraperitoneal); format: in vivo; conditions: 6 h, E. coli G, intraperitoneal infection in mice, 3 × LD50 challenge, treatments at 30, 90, 360 minutes, read-out: ED50 (cumulative dose)
Experimental: as §4, §5, §6

[9] = tested on: Staphylococcus aureus Smith; test: Experimental infections in mice (intraperitoneal); format: in vivo; conditions: 0.5 h, S. aureus Smith, intraperitoneal infection in mice, 3 × LD50 challenge, treatment at 30 minutes after infection, read-out: ED50 (cumulative dose)
Experimental: as §4, §5, §6

[10] = tested on: Citrobacter Freundii ATCC 8090; test: In-vitro antibacterial activity, agar dilution technique; format: cell-based; conditions: ATCC8090
Excerpt: as §1, §2, §3

[11] = tested on: Serratia marcescens ATCC 2902; test: as above; format: cell-based
Excerpt: as §1, §2, §3

[12] = ATCC12384, S. pyogenes ATCC 12384, agar dilution technique, read-out: In-Vitro Antibacterial Activity

SMILES | MIC (Escherichia coli 026:B6) [µg/mL] | MIC (S. Aureus 209 P) [µg/mL] | MIC [1] [µg/mL] | MIC [2] [µg/mL] | MIC (S. Epidermidis) [µg/mL] | MIC [3] [µg/mL] | MIC [4] [µg/mL] | MIC (K. aerogenes 1082 E) [µg/mL] | MIC [5] [µg/mL] | MIC (P. rettgeri ATCC 9250) [µg/mL] | MIC [6] [µg/mL] | MIC [10] [µg/mL] | MIC (S. pyogenes ATCC 12384; [12]) [µg/mL] | further results
CO/N=C(\C(=O)N[C@@H]1C(=O)N2C(C(=O)O)=C(COC(C)=O)CS[C@H]12)c1csc(N)n1 [Cefotaxime] | 0.38 (≈ 0.834 µM) | 1.56 (≈ 3.43 µM) | 0.037 (≈ 0.0812 µM) | 25 (≈ 54.9 µM) | 6.25 (≈ 13.7 µM) | 0.77 (≈ 1.69 µM) | 1.25 (≈ 2.74 µM) | 6.25 (≈ 13.7 µM) | 10 (≈ 22 µM) | 0.018 (≈ 0.0395 µM) | 0.095 (≈ 0.209 µM) |  |  | MIC (S. pyogenes ATCC 12384; ATCC12384, read-out: In-Vitro Antibacterial Activity): 1.25 µg/mL (≈ 2.74 µM)
C[C@@H](O)[C@H]1C(=O)N2C(C(=O)[O-])=C(c3ccc(C[n+]4ccccc4)cc3)S[C@H]12 [Compound 5, (5R,6S)-6-[(1R)-hydroxyethyl]-2-[4-(pyridiniomethyl)phenyl]penem-3-carboxylate] | 0.19 (≈ 0.497 µM) | 0.005 (≈ 0.0131 µM) | 0.38 (≈ 0.994 µM) | 25 (≈ 65.4 µM) | 0.19 (≈ 0.497 µM) | 0.011 (≈ 0.0288 µM) | 0.38 (≈ 0.994 µM) | 0.38 (≈ 0.994 µM) | 0.06 (≈ 0.157 µM) | 0.38 (≈ 0.994 µM) | 0.38 (≈ 0.994 µM) | 0.19 (≈ 0.497 µM) | 0.011 (≈ 0.0288 µM) | half-life ([7]; read-out: Plasma half-life t1/2 α): 5 min; half-life ([7]; read-out: Plasma half-life t1/2 β): 15 min; ED50 [8]: 0.8 mg/kg; ED50 (Escherichia coli G): 0.5 mg/kg; ED50 [9]: 0.06 mg/kg; MIC ([11]; ATCC2902, Serratia marcescens ATCC 2902, agar dilution technique, read-out: In-Vitro Antibacterial Activity): 0.76 µg/mL (≈ 1.99 µM)
CC(=O)OCC1=C(C(=O)O)N2C(=O)C(C(C)O)C2S1 (stereo not drawn) [FCE 21420] | 0.76 (≈ 2.65 µM) | 0.046 (≈ 0.16 µM) | 1.52 (≈ 5.29 µM) | 100 (≈ 348 µM) | 0.76 (≈ 2.65 µM) | 0.046 (≈ 0.16 µM) | 3.12 (≈ 10.9 µM) | 0.76 (≈ 2.65 µM) | 0.1 (≈ 0.348 µM) | 1.52 (≈ 5.29 µM) | 1.55 (≈ 5.4 µM) | 1.52 (≈ 5.29 µM) | 0.046 (≈ 0.16 µM) | MIC ([11]; Serratia marcescens, ATCC2902, read-out: In-Vitro Antibacterial Activity): 3.12 µg/mL (≈ 10.9 µM)
